Results reported in patent US20180207228A1, “PEPTIDE COMBINATIONS AND USES THEREOF FOR TREATING GRASS ALLERGY” (ALK-Abelló A/S, priority 2015, published 2018).
One block for each molecule: values may come before it. Where no end group is shown, it is not given here.

What was measured:
[1] = Extended solubility and short term stability study (visual, U-HPLC recovery, DLS, 90LS, UV-VIS, sum of scores); conditions: for solubility: pH 4.5
Description: For that purpose, the peptides were provided as acetate salts (produced by Innovagen® at a >10 mg scale of manufacturing). To take into account batch-to-batch variations, some peptides were tested from other batches of the manufacturer Innovagen®, as well as from another manufacturer (Almac) and from in-house production. Solubility experiments were performed on peptide in solution in concentrations ranging from 0.5 mg/mL to 3 mg/mL (dry matter)—with the following solvents: • Water • Acetate buffer, pH 4.5 (25 mM sodium acetate containing 250 mM D-Mannitol) • Phosphate buffer, pH 7.0 (25 mM sodium phosphate containing 250 mM D-Mannitol) • Glycine buffer, pH 8.5 (25 mM glycine containing 250 mM D-Mannitol)
The solubility of the peptides was initially investigated by visual inspection and U-HPLC recovery. Visual inspection included assessment of turbidity and presence of particles/aggregates of each peptide solution before and after centrifugation as well as visual inspection of pelleted material. The visual inspection were reported as “clear solution”, “very small precipitation only visible with a magnifier”, “precipitation visible/turbid solution” or “more precipitation/turbid solution”. Filtration of peptide solutions were conducted using syringe based filters containing a polyethersulfone (PES) membrane chemistry and a pore size of 0.2 μm. The amount of the peptide in the supernatant of a filtered sample was determined using U-HPLC with reverse phase chromatography and recovery were determined as described in Example 5.
Peptide solutions were investigated at a time point of 1 hour after production, but were also repeated at later time point (e.g. 24. 48 or 96 hours) to investigate the stability of the peptides.
Peptide solutions were investigated to determine the presence of turbidity/particles/aggregates by use of optical density (OD) and change in UV-VIS absorbance at a wavelength of 320 nm, of the filtrate. […] In addition or as an alternative, the amount of the peptide in the supernatant of a filtered sample was determined using U-HPLC as described above, with the exception that the recovery was determined by dividing the peak area of the filtered sample in relation to the peak area in the original solution prior to filtration. See also Example 5 for further details regarding UV-VIS, and recovery measured by U-HPLC.
The peptides were scored in relation to the outcome of the above mentioned tests: For each peptide in a given buffer and at a given concentration, a sum of test scores was calculated and the sum used to rank the peptides according to solubility: • 1. […] DLS peak 1 number 3 nm gave a score of 1, 3-10 nm gave a score of 2, 10-100 nm gave a score of 3, >100 nm gave a score of 4. • 5. 90LS at 400 nm: Intensity <450 gave a score of 1, <800 gave a score of 2, >800 gave a score of 3. • 6. UV-VIS change in absorbance at 320 nm within 24 hours: 0.01 gave a score of 1, ≤0.05 gave a score of 2, 0.0.2 gave a score of 3 and >0.2 gave a score of 4.

[2] = Peptide solubility by visual inspection; format: physicochemical; conditions: for Visual inspection: first solubility screening, TFA salts, 1-7 mg/mL solutions in DMSO
Description: Water (pH 3-5) • 2. 250 mM D-Mannitol and 25 mM sodium acetate, pH 4.5 • 3. 250 mM D-Mannitol and 25 mM sodium phosphate, pH 7.0 • 4. […] Water (pH 3-5) • 2. 250 mM D-Mannitol and 25 mM sodium acetate, pH 4.5 • 3. 250 mM D-Mannitol and 25 mM sodium phosphate, pH 7.0 • 4. […] A subset of the peptides was selected as candidate peptides for a final peptide mixture. […] During the solubility studies the peptide-containing solutions were inspected visually before and after filtration for turbidity, and presence of particles/aggregates. In addition, presence of turbidity/particles/aggregates was also detected by optical density (OD) or absorbance of filtered material, but might also be detected by size-exclusion chromatography. Furthermore, Sub-visual particles may also be detected by dynamic light scattering (DLS) analysis on filtered and non-filtered peptide containing solutions. Samples were furthermore subjected to centrifugation to allow for the possible visual inspection of pelleted material.

[3] = tested on: grass pollen allergic donor derived TCL-03 lines; experiment: Extended cross-reactivity study, proliferation on TCL03 DK1+DK2 (Study XR2), scoring; format: cell-based, human; conditions: study XR2; for Cross-reactivity score, Cyn d: homologue from Cyn d; for Cross-reactivity sum: scores of all species added; for Cross-reactivity/species: sum divided by the number of species measured
[4] = biological target: 25 HLA Class II alleles (purified class II MHC molecules); experiment: competitive radiolabelled-peptide binding to purified HLA class II (25 alleles, binder if IC50 <300 nM); worldwide phenotypic coverage of the alleles found to bind

Molecule: TPDKLTGPFTVRYTTEGGTK-OH [compound 024]
Visual inspection [2]: ++

Molecule: VVAVDIKEKGKDKWIELKES-OH [compound 021]
Visual inspection [2]: ++

Molecule: Ac-STGGAYESYKFIPALEAAVK-NH2 [compound 262]
solubility by ranking scheme based on a sum of scores [1]: good solubility
solubility in aqueous solutions and short-term stability [1]: sufficiently soluble

Molecule: WLDAKSTWYGKPTGAGPKDN-OH [peptide 201]
solubility in aqueous solutions and short-term stability [1]: sufficiently soluble
solubility [1]: acceptable solubility
solubility, 1st round of solubility screening [2]: soluble

Molecule: AEVELRQHGSEEWEPLTKKG-OH [compound 063]
Visual inspection [2]: +

Molecule: GGASGYKDVDKPPFSGMTGS-OH [compound 006]
Visual inspection [2]: +

Molecule: GDEQKLRSAGELELQFRRVK-OH [compound 206]
solubility in all the test samples (concentrations and pH tested), all solubility tests [1]: good solubility
solubility in aqueous solutions and short-term stability [1]: sufficiently soluble
solubility [1]: acceptable solubility
Cross-reactivity score, Cyn d ([3]; score 0 to 7): 0
Cross-reactivity score, Dac g ([3]; homologue from Dac g, score 0 to 7): 2
Cross-reactivity score, Fes p ([3]; homologue from Fes p, score 0 to 7): 2
Cross-reactivity score, Lol p ([3]; homologue from Lol p, score 0 to 7): 2
Cross-reactivity score, Pas n ([3]; homologue from Pas n, score 0 to 7): 0
Cross-reactivity score, Pha a ([3]; homologue from Pha a, score 0 to 7): 1
Cross-reactivity score, Poa p ([3]; homologue from Poa p, score 0 to 7): 0.5
Cross-reactivity score, Sor h ([3]; homologue from Sor h, score 0 to 7): 0.5
Cross-reactivity sum [3]: 8
Cross-reactivity/species [3]: 1
solubility, 1st round of solubility screening [2]: soluble

Molecule: STGGAYESYKFIPALEAAVK-NH2 [compound 261]
solubility by ranking scheme based on a sum of scores [1]: good solubility
solubility in aqueous solutions and short-term stability [1]: sufficiently soluble

Molecule: Ac-STGGAYESYKFIPALEAAVK-OH [compound 260]
solubility by ranking scheme based on a sum of scores [1]: good solubility
solubility in aqueous solutions and short-term stability [1]: sufficiently soluble

B1: peptide 143, Lol p 5a (Rye09B2) (peptide)
peptide: KKPEVKYAVFEAALTKAIT
modifications: not fully specified
Measured binding coverage 25 alleles [4]: 99%

B2: peptide 138, Lol p 5b (Bio03A) (peptide)
peptide: KFIPTLVAAVKQAYAAKQ
Measured binding coverage 25 alleles [4]: 99%

B3: peptide 204 (Phl p 1, 93) (peptide)
peptide: TDDNEEPIAPYHFDLSGHAF
Measured binding coverage 25 alleles [4]: 78%

B5: peptide 142, Lol p 5a (Rye09B1) (peptide)
peptide: KPEVKYAVFEAALTKAIT
modifications: not fully specified
Measured binding coverage 25 alleles [4]: 100%

B6: peptide 139, Lol p 5b (Bio04A) (peptide)
peptide: LKKAVTAMSEAEK
Measured binding coverage 25 alleles [4]: 62%

B13: peptide 136, Cyn d 1 (Ber02C) (peptide)
peptide: KSSWGAIWRIDPKKPLK
Measured binding coverage 25 alleles [4]: 76%

B14: peptide 135, Cyn d 1 (Ber02) (peptide)
peptide: FIPMKSSWGA
Measured binding coverage 25 alleles [4]: 19%

B15: peptide 140, Lol p 5a (Rye09B) (peptide)
peptide: PEVKYAVFEAALTKAIT
Measured binding coverage 25 alleles [4]: 99%

B17: peptide 134, Cyn d 1 (Ber01) (peptide)
peptide: SGKAFGAMAKKGQED
Measured binding coverage 25 alleles [4]: 47%

B18: peptide 137, Lol p 5b (Bio02A) (peptide)
peptide: KYDAYVATLTEALR
Measured binding coverage 25 alleles [4]: 98%

Second part, led by results:

solubility in aqueous solutions and short-term stability [1]: sufficiently soluble
solubility [1]: acceptable solubility
solubility, 1st round of solubility screening [2]: soluble
Molecule: SMGDDHFWAVRGGGGESFGI-OH [peptide 226]

solubility in aqueous solutions and short-term stability [1]: sufficiently soluble
solubility [1]: acceptable solubility
solubility, 1st round of solubility screening [2]: soluble
Molecule: VRYTTEGGTKTEAEDVIPEG-OH [peptide 212]

solubility in aqueous solutions and short-term stability [1]: sufficiently soluble
solubility [1]: acceptable solubility
solubility, 1st round of solubility screening [2]: soluble
Visual inspection after 60 min pH 4.5 ([2]; 3 mg/mL, acetate salt, non-filtered, 250 mM D-Mannitol and 25 mM sodium acetate, pH 4.5): + particles,
Visual inspection after centrifugation pH 4.5 ([2]; 3 mg/mL, acetate salt, non-filtered, 250 mM D-Mannitol and 25 mM sodium acetate, pH 4.5, after centrifugation): ++
Visual inspection after 60 min pH 7 ([2]; 3 mg/mL, acetate salt, non-filtered, 250 mM D-Mannitol and 25 mM sodium phosphate, pH 7.0): tread +
Visual inspection after centrifugation pH 7 ([2]; 3 mg/mL, acetate salt, non-filtered, 250 mM D-Mannitol and 25 mM sodium phosphate, pH 7.0, after centrifugation): ++
Molecule: KEDFLGSLVKEIPPRLLYAK-OH [peptide 222]
Cross-reactivity score, Cyn d ([3]; score 0 to 7): 1
Cross-reactivity sum [3]: 1
Cross-reactivity/species [3]: 1

solubility in aqueous solutions and short-term stability [1]: sufficiently soluble
solubility [1]: acceptable solubility
Molecule: AGYTPAAPAGAEPAGKATTE-OH [peptide 228]

Measured binding coverage 25 alleles [4]: 99%
B4: peptide 233 (Phl p 5, 104) (peptide)
peptide: EAKYDAYVATLSEALRIIAG

Measured binding coverage 25 alleles [4]: 94%
B7: peptide 234 (Phl p 5, 111) (peptide)
peptide: VATLSEALRIIAGTLEVHAV

Measured binding coverage 25 alleles [4]: 70%
B8: peptide 206 (Phl p 1, 119) (peptide)
peptide: GDEQKLRSAGELELQFRRVK

Measured binding coverage 25 alleles [4]: 99%
B9: peptide 238 (Phl p 5, 185) (peptide)
peptide: STGGAYESYKFIPALEAAVK

Measured binding coverage 25 alleles [4]: 85%
B10: peptide 209 (Phl p 1, 163) (peptide)
peptide: LVKYVNGDGDVVAVDIKEKG

Measured binding coverage 25 alleles [4]: 71%
B11: peptide 207 (Phl p 1, 127) (peptide)
peptide: AGELELQFRRVKSKYPEGTK

Measured binding coverage 25 alleles [4]: 99%
B12: peptide 237 (Phl p 5, 166) (peptide)
peptide: PANDKFTVFEAAFNNAIKAS

Measured binding coverage 25 alleles [4]: 88%
B16: peptide 205 (Phl p 1, 103) (peptide)
peptide: YHFDLSGHAFGAMAKKGDEQ
